Data published in ChEMBL document CHEMBL4376805, “Plasmodium Purine Metabolism and Its Inhibition by Nucleoside and Nucleotide Analogues” (J Med Chem, 2019).
Values belong to the compound of their own block, whether it stands above or below them.

Columns and labels:
[1] = biological target: GMP synthase [glutamine-hydrolyzing] (Homo sapiens, UniProt P49915)
Description: Inhibition of human GMP synthase

[2] = Inhibition of Plasmodium falciparum HGXPRT expressed in Escherichia coli BL21 (DE3) assessed as inhibitor constant for enzyme-inhibitor-substrate complex formation using [5'-14C]IMP as substrate by scintillation counting method
[3] = biological target: T1, Hypoxanthine-guanine phosphoribosyltransferase (Homo sapiens, UniProt P00492); assay: Inhibition of human HGPRT assessed as inhibitor constant for enzyme-inhibitor complex formation using [5'-14C]IMP as substrate by scintillation counting method
T1 sequence (P00492 whole entry): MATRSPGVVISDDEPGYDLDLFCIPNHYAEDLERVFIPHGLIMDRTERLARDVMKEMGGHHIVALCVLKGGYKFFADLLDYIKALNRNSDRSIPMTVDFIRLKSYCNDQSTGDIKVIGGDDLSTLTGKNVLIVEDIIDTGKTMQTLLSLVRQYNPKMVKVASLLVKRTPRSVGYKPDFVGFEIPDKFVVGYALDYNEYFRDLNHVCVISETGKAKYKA

[4] = biological target: T2, GMP synthase [glutamine-hydrolyzing] (Plasmodium falciparum) (UniProt Q8IJR9); assay: Inhibition of Plasmodium falciparum N-terminal His-tagged GMP synthase expressed in Escherichia coli AT2465 assessed as reduction in NADH formation incubated at 0.5 mM for 20 mins by spectrophotometric analysis relative to control
T2 sequence (whole entry): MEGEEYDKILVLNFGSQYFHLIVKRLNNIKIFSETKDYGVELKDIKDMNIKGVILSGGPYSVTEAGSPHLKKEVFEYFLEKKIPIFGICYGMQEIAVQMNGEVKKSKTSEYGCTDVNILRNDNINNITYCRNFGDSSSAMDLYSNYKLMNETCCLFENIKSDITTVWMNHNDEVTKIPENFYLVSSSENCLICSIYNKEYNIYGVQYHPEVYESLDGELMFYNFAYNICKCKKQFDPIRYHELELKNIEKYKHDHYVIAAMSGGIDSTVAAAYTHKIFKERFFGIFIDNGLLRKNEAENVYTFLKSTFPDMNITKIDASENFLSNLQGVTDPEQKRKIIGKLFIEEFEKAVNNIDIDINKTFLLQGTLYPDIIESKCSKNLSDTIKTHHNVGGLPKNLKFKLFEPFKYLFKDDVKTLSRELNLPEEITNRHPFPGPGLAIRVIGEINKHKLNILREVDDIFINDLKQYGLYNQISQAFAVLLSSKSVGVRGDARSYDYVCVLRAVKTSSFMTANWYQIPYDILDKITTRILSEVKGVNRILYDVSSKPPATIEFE

Plasmodium falciparum = assay: Antimalarial activity against Plasmodium falciparum 3D7 assessed as reduction in parasite growth incubated for 48 hrs by Giemsa-staining counting based microscopic analysis; format: functional, organism-based; conditions: 3D7, 48 h

Chain of GMP synthase [glutamine-hydrolyzing] (P49915 whole entry): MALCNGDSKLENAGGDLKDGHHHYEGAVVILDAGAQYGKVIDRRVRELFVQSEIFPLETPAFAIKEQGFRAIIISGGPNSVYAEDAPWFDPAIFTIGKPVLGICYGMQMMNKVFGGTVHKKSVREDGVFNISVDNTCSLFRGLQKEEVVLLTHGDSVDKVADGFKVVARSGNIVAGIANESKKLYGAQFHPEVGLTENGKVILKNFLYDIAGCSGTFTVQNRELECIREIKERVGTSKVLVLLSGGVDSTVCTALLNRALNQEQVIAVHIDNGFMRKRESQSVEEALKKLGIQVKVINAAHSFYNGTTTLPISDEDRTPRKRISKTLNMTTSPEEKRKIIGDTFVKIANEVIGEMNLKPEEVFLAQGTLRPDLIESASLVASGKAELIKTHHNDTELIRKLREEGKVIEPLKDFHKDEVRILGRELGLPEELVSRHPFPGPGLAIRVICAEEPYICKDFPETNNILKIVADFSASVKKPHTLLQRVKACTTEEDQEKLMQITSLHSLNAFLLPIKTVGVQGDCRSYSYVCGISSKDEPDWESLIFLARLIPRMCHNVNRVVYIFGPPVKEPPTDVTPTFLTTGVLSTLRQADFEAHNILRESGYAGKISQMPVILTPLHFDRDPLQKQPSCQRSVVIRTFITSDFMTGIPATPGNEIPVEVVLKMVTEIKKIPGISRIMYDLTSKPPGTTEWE

IC50 [1]: 46.5 µM
Compound: C=C1O[C@@](CO)(n2cnc3c(N)ncnc32)[C@H](O)[C@@H]1O [DECOYININE]

Ki [3]: 0.056 µM
Compound: Nc1nc2c([C@@H]3N[C@H](COP(=O)(O)O)[C@@H](O)[C@H]3O)c[nH]c2c(=O)[nH]1
Ki [2]: 0.014 µM

inhibition [4]: 25%
Compound: Nc1ncnc2c1ncn2[C@]1(CO)O[C@H](CO)[C@@H](O)[C@H]1O [PSICOFURANINE]
IC50 (Plasmodium falciparum): 300 µM
